Like-named read-outs stand apart in the source and are kept apart here.
Columns and labels:
[1] = test system: larvae of the mustard beetle (Phaedon cochleariae); test: Phaedon test (PHAECO spray treatment); type: in vivo; details: 168 h, 100 g/ha, after 7 days, read-out: activity in %
Outline: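 Mortality of mustard beetle larvae, expressed as percent killed (100% all, 0% none), assessed 7 days after spraying. Spray liquor made from compound in acetone plus dimethylformamide with alkylaryl polyglycol ether, diluted in emulsifier-containing water to the desired concentration.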

[2] = test system: caterpillars of the armyworm (Spodoptera frugiperda); test: Spodoptera frugiperda test (SPODFR spray treatment); type: in vivo; details: 168 h, after 7 days; for pest or weed control at 100 g/ha: read-out: activity in %
Outline: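 Percent caterpillar mortality read 7 days after infestation (0% none killed, 100% all killed). Treatment was a spray of the acetone/DMF/emulsifier formulation, water-diluted to test concentration, onto Zea mays leaf discs, allowed to dry before larvae were added.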

[3] = log P determination by HPLC on reversed-phase columns (EEC Directive 79/831 Annex V.A8); type: physicochemical; details: pH 2.7
Outline: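 Calibration used unbranched alkan-2-ones of 3 to 16 carbons with known log P, values interpolated linearly from retention times between neighbouring standards. Acidic-range LC-MS run at pH 2.7, eluents aqueous and acetonitrile formic acid 0.1%, linear gradient 10% to 95% acetonitrile.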

[4] = test system: green peach aphid (Myzus persicae); test: Myzus test (MYZUPE spray treatment), Use Example 4; type: in vivo; details: 144 h, 100 g/ha, after 6 days, read-out: activity in %
Outline: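 Compound was formulated in acetone/dimethylformamide with alkylaryl polyglycol ether emulsifier and diluted in emulsifier-containing water. It was sprayed onto Chinese cabbage leaf discs infested with all stages of Myzus persicae. Mortality (%) was scored after 6 days, where 100% means all aphids killed.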

[5] = reversed-phase C18 HPLC column, HPLC on reversed-phase columns (C 18), EEC Directive 79/831 Annex V.A8, read-out: logP

Row | SMILES | chromatographic logP [3, 5] | pest or weed control at 100 g/ha [1] | pest or weed control at 20 g/ha ([2]; 20 g/ha) | chromatographic logP [3] | pest or weed control at 100 g/ha [4] | pest or weed control at 100 g/ha [2]
1 | Cc1cc(I)cc(C(N)=O)c1NC(=O)c1cc(Cn2ncc(C(F)(C(F)(F)F)C(F)(F)F)n2)nn1-c1ncccc1Cl [Example 271] |  | 100% | 100% | 3.7 | 80% | 
2 | CNC(=O)c1cc(Cl)cc(Cl)c1NC(=O)c1cc(Cn2ncc(C(F)(C(F)(F)F)C(F)(F)F)n2)nn1-c1ncccc1Cl [Example 273] |  | 100% |  | 3.69 | 100% | 100%
3 | CNC(=O)c1cc(Cl)cc(C)c1NC(=O)c1cc(Cn2cc(C(F)(F)C(F)(F)F)nn2)nn1-c1ncccc1Cl [Example 299] |  | 100% |  | 3.02 | 80% | 100%
4 | Cc1cc(Cl)cc(C(=O)NC(C)C2CC2)c1NC(=O)c1cc(Cn2cc(C(F)(F)C(F)(F)F)nn2)nn1-c1ncccc1Cl (stereo not shown) [Example 300] |  | 100% |  | 3.79 | 90% | 100%
5 | Cc1cc(Cl)cc(C(=O)NC2CC2)c1NC(=O)c1cc(Cn2cc(C(F)(F)C(F)(F)F)nn2)nn1-c1ncccc1Cl [Example 301] |  | 100% |  | 3.26 | 90% | 100%
6 | CCNC(=O)c1cc(Cl)cc(C)c1NC(=O)c1cc(Cn2cc(C(F)(F)C(F)(F)F)nn2)nn1-c1ncccc1Cl [Example 302] |  | 100% |  | 3.26 | 80% | 100%
7 | Cc1cc(Cl)cc(C(=O)NC(C)C)c1NC(=O)c1cc(Cn2cc(C(F)(F)C(F)(F)F)nn2)nn1-c1ncccc1Cl [Example 303] |  | 100% |  | 3.5 | 100% | 100%
8 | Cc1cc(Cl)cc(C(=O)NC(C)(C)C)c1NC(=O)c1cc(Cn2cc(C(F)(F)C(F)(F)F)nn2)nn1-c1ncccc1Cl [Example 304] |  | 100% |  | 3.85 | 100% | 100%

Now from value to molecule, other results behind:

Row | chromatographic logP [3, 5] | SMILES | pest or weed control at 100 g/ha [1] | pest or weed control at 20 g/ha ([2]; 20 g/ha) | chromatographic logP [3] | pest or weed control at 100 g/ha [4] | pest or weed control at 100 g/ha [2]
9 | 3.1 | CNC(=O)c1cc(C#N)cc(C)c1NC(=O)c1cc(Cn2ncc(C(F)(F)F)n2)nn1-c1ccccc1Cl [Example 284] | 100% |  |  | 80% | 100%
10 | 3.59 | Cc1cc(C#N)cc(C(=O)NC(C)C)c1NC(=O)c1cc(Cn2ncc(C(F)(F)F)n2)nn1-c1ccccc1Cl [Example 286] | 100% |  |  | 80% | 100%
11 | 3.3 | CCNC(=O)c1cc(C#N)cc(C)c1NC(=O)c1cc(Cn2ncc(C(F)(F)F)n2)nn1-c1ccccc1Cl [Example 288] | 100% |  |  | 100% | 100%
12 | 3.3 | Cc1cc(C#N)cc(C(=O)NC2CC2)c1NC(=O)c1cc(Cn2ncc(C(F)(F)F)n2)nn1-c1ccccc1Cl [Example 289] | 100% |  |  | 100% | 100%
13 | 3.08 | CNC(=O)c1cc(Cl)cc(C)c1NC(=O)c1cc(Cn2cc(C(F)(F)F)nn2)nn1-c1ccccc1Cl [Example 291] | 100% |  |  | 80% | 100%
14 | 2.63 | CNC(=O)c1cc(C#N)cc(C)c1NC(=O)c1cc(Cn2cc(C(F)(F)F)nn2)nn1-c1ccccc1Cl [Example 293] | 100% |  |  | 80% | 100%
15 | 2.92 | CCNC(=O)c1cc(C#N)cc(C)c1NC(=O)c1cc(Cn2cc(C(F)(F)F)nn2)nn1-c1ccccc1Cl [Example 294] | 100% |  |  | 100% | 100%
16 | 3.46 | CNC(=O)c1cc(C#N)cc(C)c1NC(=O)c1cc(Cn2nncc2C(F)(C(F)(F)F)C(F)(F)F)nn1-c1ccccc1Cl [Example 298] | 100% |  |  | 80% | 100%

— patent publication US8536202B2, “Triazole-substituted anthranilamides as pesticides” (Bayer Cropscience AG, priority 2010, dated 2013)
